Data as given in US5316767A, “Whitening cosmetic composition” (priority 1990, dated 1994).
Values after ≈ are worked out from the molar mass of the structure shown. Numbered stars: 1 amine (or outer) side, 2 acyl side, 3 side chain; on linkers, the order of the positions; unused ones are H or OH. Bridge positions count the residues as written; N and C are the ends. Square brackets hold non-standard residues; d marks the D form. Peptide text beside a SMILES is read from it. I, II: the chains in the order shown. γGlu = O=C(O)[C@H](CCC(=O)[*:2])N[*:1]

What was measured:
B16-C melanoma cells = experiment: Melanin formation inhibitory activity in B16-C melanoma cells (Experiment 2); assay type: cell-based, mouse
Description: After 2 ml of MEM medium (manufactured by Nissui Pharmaceutical Co.) (serum concentration of 5%) was added in a 6-well culture plate, mouse-derived B16-C melanoma cells were plated at 2×10^5 cells/well and test compounds were then separately added. B16-C melanoma cells were cultured at 37° C. in 5% CO2 incubator. On Day 3 and Day 5, the medium was exchanged and at the same time, the test compounds were separately added. On Day 7, the medium was removed. The cells were trypsinized and resuspended in PBS and pelleted by centrifugation. […] The protein content in the cells and the amount of melanin formed were determined, whereby the amount of melanin formed (μg) per protein content (mg) were calculated. The protein content and the amount of melanin formed were quantitatively determined by the method of Bradford et al. [Analytical Biochemistry, 72, 248-254 (1976)] and by measuring absorbance of the test solution at 470 nm [Cancer Research, 45, 1474-1478 (1985)], respectively.

physchem [1] = conditions: pH 6.5
physchem [2] = conditions: pH 6.5; remark: listed apart in the source
physchem [3] = conditions: water
[4] = Heat stability: residual rate after heating at 100° C. for 20 minutes; conditions: pH 6.5
[5] = Storage stability: residual rate after allowing to stand at 40° C. for 30 days
[6] = 0.25 mM, first series (nothing added: 211.4 ± 11.45)
[7] = 0.5 mM, first series (nothing added: 211.4 ± 11.45)
[8] = 1.0 mM, first series (nothing added: 211.4 ± 11.45)

In the case of `OC[C@H]1O[C@@H](Oc2ccc(O)cc2)[C@H](O)[C@@H](O)[C@@H]1O` [Arbutin], the “Melanin Content/Protein Content” value (B16-C melanoma cells; [6]) is reported as 108.7 ± 13.04 µg/mg, the “Melanin Content/Protein Content” value (B16-C melanoma cells; [7]) is reported as 89.2 ± 13.48 µg/mg and the “Melanin Content/Protein Content” value (B16-C melanoma cells; [8]) is reported as “growth inhibition”. It also gave a remaining at 20 min, 10000 µM (physchem [1]) of 100%, a remaining at 720 h, 10000 µM (physchem [2]) of 100% and a solubility (physchem [3]) of 142 mg/mL (≈ 520 mM).

With `N[C@@H](CCC(=O)N[C@@H](CS)C(=O)NCC(=O)O)C(=O)O` [Glutathione, γ-L-glutamyl-L-cysteinyl-glycine] the remaining at 20 min, 10000 µM (physchem [1]) was 70% and the remaining at 720 h, 10000 µM (physchem [2]) was 0%.

In the case of `O=c1cc(CO)occ1O` [Kojic acid], the “Melanin Content/Protein Content” value (B16-C melanoma cells; [6]) is reported as 233.7 ± 14.37 µg/mg, the “Melanin Content/Protein Content” value (B16-C melanoma cells; [7]) is reported as 202.4 ± 11.49 µg/mg and the “Melanin Content/Protein Content” value (B16-C melanoma cells; [8]) is reported as 188.6 ± 9.93 µg/mg. For the same compound, the “Activity for inhibiting melanin formation as compared with γ-L-glutamyl-L-cysteine disulfide and oxidized glutathione” value (B16-C melanoma cells; Table 3) was “poorer”, the solubility (Water solubility) was 48.3 mg/mL (≈ 340 mM) and the remaining at 20 min, 10000 µM [4] was 100%. The Coloration ([5]; 40° C., 30 days, pH 6.5, 10 mM) was “colored” and the remaining at 720 h, 10000 µM ([5]; pH 6.5) was 100%.

For `CC(=O)N[C@@H](CCC(=O)N[C@@H](CSSC[C@H](NC(=O)CC[C@H](NC(C)=O)C(=O)O)C(=O)NCC(=O)O)C(=O)NCC(=O)O)C(=O)O` [N,N'-diacetyl-oxidized glutathione, N,N'-diacetyl oxidized glutathione] (I: Ac-[γGlu]-Cys-Gly-OH / II: Ac-[γGlu]-Cys-Gly-OH; disulfide I:2-II:2), the “Melanin Content/Protein Content” value (B16-C melanoma cells; 1.0 mM, second series (nothing added: 330.1 ± 22.5)) was 221.4 ± 18.6 µg/mg, the “Melanin Content/Protein Content” value (B16-C melanoma cells; 2.0 mM, second series (nothing added: 330.1 ± 22.5)) was 198.1 ± 8.5 µg/mg and the “Inhibition of melanin formation in B16-C melanoma cells” value (B16-C melanoma cells; Table 3) was “significantly inhibiting melanin formation”. It also gave a remaining at 20 min, 10000 µM (physchem [1]) of 100%, a remaining at 720 h, 10000 µM (physchem [2]) of 100% and a solubility (physchem [3]) greater than 200 mg/mL.

With `N[C@@H](CCC(=O)N[C@@H](CSSC[C@H](NC(=O)CC[C@H](N)C(=O)O)C(=O)O)C(=O)O)C(=O)O` [γ-L-glutamyl-L-cysteine disulfide] the “Melanin Content/Protein Content” value (B16-C melanoma cells; [7]) was 189.3 ± 10.56 µg/mg, the “Melanin Content/Protein Content” value (B16-C melanoma cells; [8]) was 155.6 ± 7.68 µg/mg and the “Melanin Content/Protein Content” value (B16-C melanoma cells; 2.0 mM, first series (nothing added: 211.4 ± 11.45)) was 154.7 ± 12.16 µg/mg. For the same compound, the “Inhibition of melanin formation in B16-C melanoma cells” value (B16-C melanoma cells; Table 3) was “significantly inhibiting melanin formation”, the remaining at 20 min, 10000 µM (physchem [1]) was 100% and the remaining at 720 h, 10000 µM (physchem [2]) was 100%. It also gave a solubility (physchem [3]) greater than 554 mg/mL.

For `N[C@@H](CCC(=O)N[C@@H](CSSC[C@H](N)C(=O)O)C(=O)O)C(=O)O` [γ-L-glutamyl-L-cystine], the remaining at 20 min, 10000 µM (physchem [1]) was 100%, the remaining at 720 h, 10000 µM (physchem [2]) was 100% and the solubility (physchem [3]) was greater than 742 mg/mL.
